In ChEMBL document CHEMBL4507304, “Data for DCP probe TP-021” (2021):

How the values were obtained:
[1] = target: Tyrosine-protein kinase ABL2 (Homo sapiens) (UniProt P42684); details: Compound concentration 1000.0 nM
[2] = target: Myosin light chain kinase (Homo sapiens) (UniProt Q32MK0); details: Compound concentration 1000.0 nM
[3] = target: Mitogen-activated protein kinase 13 (Homo sapiens) (UniProt O15264); details: Compound concentration 1000.0 nM
[4] = target: Serine/threonine-protein kinase 38-like (Homo sapiens) (UniProt Q9Y2H1); details: Compound concentration 1000.0 nM
[5] = target: Eukaryotic translation initiation factor 2-alpha kinase 1 (Homo sapiens) (UniProt Q9BQI3); details: Compound concentration 1000.0 nM
[6] = target: 5-hydroxytryptamine receptor 2C (Homo sapiens) (UniProt P28335); details: Compound concentration 10.0 uM
[7] = target: Mitogen-activated protein kinase kinase kinase kinase 3 (Homo sapiens) (UniProt Q8IVH8); details: Compound concentration 1000.0 nM
Sequence of Mitogen-activated protein kinase kinase kinase kinase 3 (Homo sapiens) (Q8IVH8 whole entry): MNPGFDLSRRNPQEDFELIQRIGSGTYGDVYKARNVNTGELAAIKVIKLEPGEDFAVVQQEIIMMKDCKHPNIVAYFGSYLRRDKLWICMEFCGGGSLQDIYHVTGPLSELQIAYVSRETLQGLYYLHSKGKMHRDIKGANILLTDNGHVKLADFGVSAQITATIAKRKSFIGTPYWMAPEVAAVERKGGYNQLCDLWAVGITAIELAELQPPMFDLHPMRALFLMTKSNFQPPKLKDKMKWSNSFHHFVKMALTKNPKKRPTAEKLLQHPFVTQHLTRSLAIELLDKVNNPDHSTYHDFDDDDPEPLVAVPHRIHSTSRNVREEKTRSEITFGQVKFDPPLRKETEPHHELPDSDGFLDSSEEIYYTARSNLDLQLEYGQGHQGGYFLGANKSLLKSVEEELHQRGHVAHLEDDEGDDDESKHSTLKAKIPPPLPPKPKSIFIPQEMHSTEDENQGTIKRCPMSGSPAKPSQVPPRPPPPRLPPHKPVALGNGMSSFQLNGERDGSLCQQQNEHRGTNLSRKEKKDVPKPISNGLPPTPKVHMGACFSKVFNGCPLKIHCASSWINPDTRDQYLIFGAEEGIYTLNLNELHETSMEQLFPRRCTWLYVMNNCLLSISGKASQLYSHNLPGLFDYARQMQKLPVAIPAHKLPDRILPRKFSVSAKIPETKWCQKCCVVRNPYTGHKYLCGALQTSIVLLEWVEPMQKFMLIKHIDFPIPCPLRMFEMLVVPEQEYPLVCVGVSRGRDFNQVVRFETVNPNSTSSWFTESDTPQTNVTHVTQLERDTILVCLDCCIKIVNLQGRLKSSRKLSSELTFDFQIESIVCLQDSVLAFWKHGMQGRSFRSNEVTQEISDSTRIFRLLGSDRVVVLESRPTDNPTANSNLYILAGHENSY

[8] = target: Receptor-interacting serine/threonine-protein kinase 4 (Homo sapiens) (UniProt P57078); details: Compound concentration 1000.0 nM
Sequence of Receptor-interacting serine/threonine-protein kinase 4 (Homo sapiens) (P57078 whole entry): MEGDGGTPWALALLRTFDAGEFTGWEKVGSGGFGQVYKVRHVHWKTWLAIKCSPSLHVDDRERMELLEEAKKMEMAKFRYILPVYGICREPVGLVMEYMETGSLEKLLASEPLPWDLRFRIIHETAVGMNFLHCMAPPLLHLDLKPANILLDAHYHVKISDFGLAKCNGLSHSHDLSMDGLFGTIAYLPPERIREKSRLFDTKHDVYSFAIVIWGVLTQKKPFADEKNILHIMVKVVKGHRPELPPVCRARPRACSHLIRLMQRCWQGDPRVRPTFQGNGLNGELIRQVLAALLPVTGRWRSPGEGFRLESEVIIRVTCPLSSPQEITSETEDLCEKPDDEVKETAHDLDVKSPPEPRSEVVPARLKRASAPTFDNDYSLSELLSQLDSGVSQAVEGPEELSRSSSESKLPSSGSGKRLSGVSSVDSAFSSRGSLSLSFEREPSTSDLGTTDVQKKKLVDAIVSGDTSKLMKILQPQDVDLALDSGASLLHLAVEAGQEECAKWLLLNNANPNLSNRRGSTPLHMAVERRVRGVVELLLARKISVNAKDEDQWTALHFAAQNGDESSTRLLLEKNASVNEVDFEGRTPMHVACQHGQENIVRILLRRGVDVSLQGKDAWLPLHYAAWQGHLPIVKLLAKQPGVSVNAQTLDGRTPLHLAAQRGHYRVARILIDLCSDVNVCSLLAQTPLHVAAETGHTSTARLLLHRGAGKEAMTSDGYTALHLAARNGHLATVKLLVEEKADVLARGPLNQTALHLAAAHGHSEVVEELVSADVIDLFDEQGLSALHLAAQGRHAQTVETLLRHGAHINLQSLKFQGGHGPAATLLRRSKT

[9] = target: Mitogen-activated protein kinase 10 (Homo sapiens) (UniProt P53779); details: Compound concentration 1000.0 nM
[10] = test system: Epidermal growth factor receptor (Homo sapiens), P00533 [G719S]; details: Compound concentration 1000.0 nM
[11] = test system: Mast/stem cell growth factor receptor Kit (Homo sapiens), P10721 [D816H]; details: Compound concentration 1000.0 nM
Sequence of Mast/stem cell growth factor receptor Kit (Homo sapiens), P10721 [D816H] (P10721 whole entry D816H): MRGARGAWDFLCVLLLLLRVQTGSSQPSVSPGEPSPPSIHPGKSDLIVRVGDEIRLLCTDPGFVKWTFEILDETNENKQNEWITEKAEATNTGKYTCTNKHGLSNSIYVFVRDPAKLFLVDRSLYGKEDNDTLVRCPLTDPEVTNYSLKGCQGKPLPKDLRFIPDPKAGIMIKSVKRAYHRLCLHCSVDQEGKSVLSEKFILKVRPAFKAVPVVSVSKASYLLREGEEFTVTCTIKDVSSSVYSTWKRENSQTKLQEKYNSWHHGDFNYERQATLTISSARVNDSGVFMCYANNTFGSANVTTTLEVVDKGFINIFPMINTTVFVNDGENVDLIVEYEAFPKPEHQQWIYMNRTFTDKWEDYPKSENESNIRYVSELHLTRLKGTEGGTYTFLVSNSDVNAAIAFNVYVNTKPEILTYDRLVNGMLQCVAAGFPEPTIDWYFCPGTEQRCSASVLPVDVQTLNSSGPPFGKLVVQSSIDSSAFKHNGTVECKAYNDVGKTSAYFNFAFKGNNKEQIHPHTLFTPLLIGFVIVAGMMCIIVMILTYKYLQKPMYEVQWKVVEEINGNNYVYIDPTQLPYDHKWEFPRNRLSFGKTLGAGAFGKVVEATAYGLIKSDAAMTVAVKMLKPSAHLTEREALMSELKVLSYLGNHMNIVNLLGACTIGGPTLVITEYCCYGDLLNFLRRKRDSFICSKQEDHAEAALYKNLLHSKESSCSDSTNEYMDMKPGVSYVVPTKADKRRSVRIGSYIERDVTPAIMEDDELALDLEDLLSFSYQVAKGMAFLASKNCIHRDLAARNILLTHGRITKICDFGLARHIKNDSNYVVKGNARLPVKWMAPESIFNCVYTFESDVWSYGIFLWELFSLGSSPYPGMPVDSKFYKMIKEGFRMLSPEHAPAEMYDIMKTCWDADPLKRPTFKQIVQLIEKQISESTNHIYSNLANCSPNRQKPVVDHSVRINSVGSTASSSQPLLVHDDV

[12] = target: Activin receptor type-2A (Homo sapiens) (UniProt P27037); details: Compound concentration 1000.0 nM
[13] = target: Interferon-induced, double-stranded RNA-activated protein kinase (Homo sapiens) (UniProt P19525); details: Compound concentration 1000.0 nM
[14] = target: D(2) dopamine receptor (Homo sapiens) (UniProt P14416); details: Compound concentration 10.0 uM
[15] = target: D(1B) dopamine receptor (Homo sapiens) (UniProt P21918); details: Compound concentration 10.0 uM
[16] = target: Phosphatidylinositol 4,5-bisphosphate 3-kinase catalytic subunit delta isoform (Homo sapiens) (UniProt O00329); details: Compound concentration 1000.0 nM
[17] = target: Serine/threonine-protein kinase Nek3 (Homo sapiens) (UniProt P51956); details: Compound concentration 1000.0 nM
[18] = target: Beta-3 adrenergic receptor (Homo sapiens) (UniProt P13945); details: Compound concentration 10.0 uM
[19] = target: Alpha-1A adrenergic receptor (Homo sapiens) (UniProt P35348); details: Compound concentration 10.0 uM

Sequence of Tyrosine-protein kinase ABL2 (Homo sapiens) (P42684 whole entry): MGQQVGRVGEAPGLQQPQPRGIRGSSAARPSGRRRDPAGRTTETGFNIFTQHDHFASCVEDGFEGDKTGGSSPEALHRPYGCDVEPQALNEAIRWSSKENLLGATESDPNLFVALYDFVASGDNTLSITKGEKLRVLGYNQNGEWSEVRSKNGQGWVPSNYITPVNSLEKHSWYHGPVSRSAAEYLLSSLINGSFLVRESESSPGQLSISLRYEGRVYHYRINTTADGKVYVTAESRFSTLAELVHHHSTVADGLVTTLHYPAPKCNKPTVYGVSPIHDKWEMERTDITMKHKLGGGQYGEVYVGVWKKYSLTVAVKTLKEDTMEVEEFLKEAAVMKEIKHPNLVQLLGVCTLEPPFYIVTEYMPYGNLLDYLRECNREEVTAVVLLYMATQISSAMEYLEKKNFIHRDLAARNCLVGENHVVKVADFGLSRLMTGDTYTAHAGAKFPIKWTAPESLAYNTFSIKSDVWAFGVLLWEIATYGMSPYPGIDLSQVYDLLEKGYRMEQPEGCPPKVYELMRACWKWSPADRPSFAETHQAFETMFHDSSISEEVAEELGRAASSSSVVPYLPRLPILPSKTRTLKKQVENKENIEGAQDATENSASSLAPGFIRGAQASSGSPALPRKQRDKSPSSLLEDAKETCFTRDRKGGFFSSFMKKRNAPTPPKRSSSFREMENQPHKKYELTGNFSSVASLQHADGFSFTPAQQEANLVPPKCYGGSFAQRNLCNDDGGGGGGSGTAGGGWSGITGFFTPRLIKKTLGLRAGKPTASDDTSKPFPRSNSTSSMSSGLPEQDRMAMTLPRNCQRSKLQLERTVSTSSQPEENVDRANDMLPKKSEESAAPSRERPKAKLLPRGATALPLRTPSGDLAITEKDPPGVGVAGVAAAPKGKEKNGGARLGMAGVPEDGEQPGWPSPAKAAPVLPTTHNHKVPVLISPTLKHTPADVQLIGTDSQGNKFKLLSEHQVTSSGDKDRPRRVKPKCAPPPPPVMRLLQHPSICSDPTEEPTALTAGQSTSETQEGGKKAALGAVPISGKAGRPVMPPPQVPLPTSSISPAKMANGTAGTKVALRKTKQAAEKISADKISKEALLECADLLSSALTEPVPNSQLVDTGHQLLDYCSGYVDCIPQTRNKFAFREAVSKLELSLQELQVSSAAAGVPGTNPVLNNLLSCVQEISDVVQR
Sequence of Myosin light chain kinase (Homo sapiens) (Q32MK0 whole entry): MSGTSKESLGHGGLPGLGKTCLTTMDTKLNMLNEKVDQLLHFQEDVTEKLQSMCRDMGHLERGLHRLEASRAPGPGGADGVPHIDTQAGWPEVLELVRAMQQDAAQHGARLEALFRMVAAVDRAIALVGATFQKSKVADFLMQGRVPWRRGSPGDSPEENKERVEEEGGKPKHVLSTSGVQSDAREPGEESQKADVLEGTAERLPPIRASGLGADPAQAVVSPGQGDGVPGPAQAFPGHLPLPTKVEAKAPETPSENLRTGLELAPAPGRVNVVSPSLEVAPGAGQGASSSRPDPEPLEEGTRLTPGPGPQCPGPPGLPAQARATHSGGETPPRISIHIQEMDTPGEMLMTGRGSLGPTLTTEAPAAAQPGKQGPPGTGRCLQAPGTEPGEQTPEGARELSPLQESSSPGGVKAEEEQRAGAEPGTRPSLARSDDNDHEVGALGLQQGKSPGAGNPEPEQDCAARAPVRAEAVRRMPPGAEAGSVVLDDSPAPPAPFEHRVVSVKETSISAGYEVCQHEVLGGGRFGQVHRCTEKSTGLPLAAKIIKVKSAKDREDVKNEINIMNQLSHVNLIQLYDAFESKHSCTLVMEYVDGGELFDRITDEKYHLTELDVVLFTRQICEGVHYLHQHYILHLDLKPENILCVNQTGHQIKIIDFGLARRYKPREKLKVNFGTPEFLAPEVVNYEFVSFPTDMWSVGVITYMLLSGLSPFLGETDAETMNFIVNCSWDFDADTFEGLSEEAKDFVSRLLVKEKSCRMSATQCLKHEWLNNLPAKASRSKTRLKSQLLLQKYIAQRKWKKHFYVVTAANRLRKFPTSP
Sequence of Mitogen-activated protein kinase 13 (Homo sapiens) (O15264 whole entry): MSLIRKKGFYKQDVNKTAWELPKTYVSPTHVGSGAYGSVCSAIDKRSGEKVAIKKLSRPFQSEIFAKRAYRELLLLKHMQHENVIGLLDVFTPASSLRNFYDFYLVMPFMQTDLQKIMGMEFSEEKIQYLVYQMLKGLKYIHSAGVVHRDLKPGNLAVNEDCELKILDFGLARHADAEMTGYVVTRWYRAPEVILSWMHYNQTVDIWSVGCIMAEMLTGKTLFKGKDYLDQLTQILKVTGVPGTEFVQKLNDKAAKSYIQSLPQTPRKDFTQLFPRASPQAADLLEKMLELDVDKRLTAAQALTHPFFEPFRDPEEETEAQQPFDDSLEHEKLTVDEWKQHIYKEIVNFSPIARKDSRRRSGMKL

N#Cc1ccc(Nc2ccc3[nH]c(=O)[nH]c3c2)c(Cl)c1
inactive: residual activity [1] 93% | residual activity [2] 93% | residual activity [3] 100% | residual activity [4] 53% | residual activity [5] 100% | inhibition [6] -9.96% | residual activity [7] 88% | residual activity [8] 89% | residual activity [9] 100% | residual activity [10] 100% | residual activity [11] 99% | residual activity [12] 70% | residual activity [13] 57%

O=C1CCc2cc(Nc3cc(OC4CCOCC4)c([N+](=O)[O-])cc3Cl)ccc2N1
inactive: residual activity [1] 79% | residual activity [2] 100% | residual activity [3] 100% | inhibition [14] 2.86% | inhibition [15] 13% | residual activity [5] 100% | residual activity [16] 94% | residual activity [17] 100% | residual activity [7] 91% | residual activity [8] 100% | inhibition [18] 7.73% | residual activity [9] 98% | residual activity [10] 100% | residual activity [11] 100% | residual activity [12] 81% | inhibition [19] -8.76%
